According to PMC10321576, “Cyclic peptides target the aromatic cage of a PHD-finger reader domain to modulate epigenetic protein function” (Chemical Science, 2023):
Peptide text beside a SMILES is read from it.

Target: T1, KDM7B PHD-finger (Homo sapiens, UniProt Q9UPP1)
T1 construct: KDM7B 1-66; His-tag (C); made in house
T1 sequence (Q9UPP1 1-66 isoform Q9UPP1-2): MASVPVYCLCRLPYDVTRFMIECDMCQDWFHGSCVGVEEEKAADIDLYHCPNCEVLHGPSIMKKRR
Experiment: Protein NMR 1H-15N HSQC chemical shift perturbation
Type: binding
Excerpt: To better elucidate OC9 interactions at a single residue level, we conducted protein NMR studies using isotopically labelled PHD-finger.[48] Comparison of ^1H–^15N HSQC spectra for isotopically labelled apo and OC9-bound protein (Fig. 4a), independently assigned using ^13C,^15N 3D experiments (Fig. S21, NMR ESI ^†), identified 24 out of 66 protein residues with significant (standard deviation, s > 1) chemical shift perturbation (CSP, Δδ) of their backbone amides (Fig. 4b).
(a) ^1H–^15N HSQC of KDM7B PHD-finger in the apo (black) or bound forms with OC9 (purple, 1 : 1) or H3_1–21K4me3 (green, 3 : 1). (b) ^1H and ^15N chemical shift changes for apo vs. + OC9 were combined and weighted to give chemical shift perturbation (CSP) (Δδ) values. Standard deviation (σ) of Δδ are indicated (>1 pink, >2 purple). (c) TALOS+ predicts similar secondary structure elements in apo and OC9-bound solution protein complexes (light grey) to those found in PDB ID 3KV4 (dark grey). […] (e) Shielded ^1H-NMR signals centred around −0.5 ppm belonging to the OC9 V10 γ-methyl groups are observed in some OC9–PHD complexes, but not in apo protein, or complexes with OC9 V10A and OC9 V10DV. The V10^OC9 γ-methyl signals have NOE interactions (black semi-circles) with the W29^PHD indole, which itself is shielded upon binding of OC9 (indicated by ΔδH values).

CSP His49, OC9 vs OC9 L3A (residue His49 amide, PHD+OC9 vs PHD+OC9 L3A): 0.0165
CSP His57 (residue His57 amide 1H-15N, Free PHD vs PHD+peptide): 0.0486
CSP His57, OC9 vs OC9 L3A (residue His57 amide, PHD+OC9 vs PHD+OC9 L3A): 0.0065
CSP Ile21 (residue Ile21 amide 1H-15N, Free PHD vs PHD+peptide): 0.1438
CSP Ile21, OC9 vs OC9 L3A (residue Ile21 amide, PHD+OC9 vs PHD+OC9 L3A): 0.0277
CSP Ile45 (residue Ile45 amide 1H-15N, Free PHD vs PHD+peptide): 0.1010
CSP Ile45, OC9 vs OC9 L3A (residue Ile45 amide, PHD+OC9 vs PHD+OC9 L3A): 0.0202
CSP Ile61 (residue Ile61 amide 1H-15N, Free PHD vs PHD+peptide): 0.1437
CSP Ile61, OC9 vs OC9 L3A (residue Ile61 amide, PHD+OC9 vs PHD+OC9 L3A): 0.0065
CSP Leu9 (residue Leu9 amide 1H-15N, Free PHD vs PHD+peptide): 0.1892
CSP Leu9, OC9 vs OC9 L3A (residue Leu9 amide, PHD+OC9 vs PHD+OC9 L3A): 0.0129
CSP Leu12 (residue Leu12 amide 1H-15N, Free PHD vs PHD+peptide): 0.1747
CSP Leu12, OC9 vs OC9 L3A (residue Leu12 amide, PHD+OC9 vs PHD+OC9 L3A): 0.0115
CSP Leu47 (residue Leu47 amide 1H-15N, Free PHD vs PHD+peptide): 0.1015
CSP Leu47, OC9 vs OC9 L3A (residue Leu47 amide, PHD+OC9 vs PHD+OC9 L3A): 0.0102
CSP Leu56 (residue Leu56 amide 1H-15N, Free PHD vs PHD+peptide): 0.0523
CSP Leu56, OC9 vs OC9 L3A (residue Leu56 amide, PHD+OC9 vs PHD+OC9 L3A): 0.0102
CSP Lys41 (residue Lys41 amide 1H-15N, Free PHD vs PHD+peptide): 0.1015
CSP Lys41, OC9 vs OC9 L3A (residue Lys41 amide, PHD+OC9 vs PHD+OC9 L3A): 0.0275
CSP Lys63 (residue Lys63 amide 1H-15N, Free PHD vs PHD+peptide): 0.1309
CSP Lys63, OC9 vs OC9 L3A (residue Lys63 amide, PHD+OC9 vs PHD+OC9 L3A): 0.0000
CSP Lys64 (residue Lys64 amide 1H-15N, Free PHD vs PHD+peptide): 0.0250
CSP Lys64, OC9 vs OC9 L3A (residue Lys64 amide, PHD+OC9 vs PHD+OC9 L3A): 0.0034
CSP Met20 (residue Met20 amide 1H-15N, Free PHD vs PHD+peptide): 0.3554
CSP Met20, OC9 vs OC9 L3A (residue Met20 amide, PHD+OC9 vs PHD+OC9 L3A): 0.0065
CSP Met25 (residue Met25 amide 1H-15N, Free PHD vs PHD+peptide): 0.7126
CSP Met25, OC9 vs OC9 L3A (residue Met25 amide, PHD+OC9 vs PHD+OC9 L3A): 0.0388
CSP Met62 (residue Met62 amide 1H-15N, Free PHD vs PHD+peptide): 0.0950
CSP Met62, OC9 vs OC9 L3A (residue Met62 amide, PHD+OC9 vs PHD+OC9 L3A): 0.0055
CSP Phe19 (residue Phe19 amide 1H-15N, Free PHD vs PHD+peptide): 0.3115
CSP Phe19, OC9 vs OC9 L3A (residue Phe19 amide, PHD+OC9 vs PHD+OC9 L3A): 0.0174
CSP Phe30 (residue Phe30 amide 1H-15N, Free PHD vs PHD+peptide): 0.2578
CSP Phe30, OC9 vs OC9 L3A (residue Phe30 amide, PHD+OC9 vs PHD+OC9 L3A): 0.0115
CSP Ser3 (residue Ser3 amide 1H-15N, Free PHD vs PHD+peptide): 0.0045
CSP Ser3, OC9 vs OC9 L3A (residue Ser3 amide, PHD+OC9 vs PHD+OC9 L3A): 0.0000
CSP Ser33 (residue Ser33 amide 1H-15N, Free PHD vs PHD+peptide): 0.1165
CSP Ser33, OC9 vs OC9 L3A (residue Ser33 amide, PHD+OC9 vs PHD+OC9 L3A): 0.0065
CSP Ser60 (residue Ser60 amide 1H-15N, Free PHD vs PHD+peptide): 0.0496
CSP Ser60, OC9 vs OC9 L3A (residue Ser60 amide, PHD+OC9 vs PHD+OC9 L3A): 0.0034
CSP Thr17 (residue Thr17 amide 1H-15N, Free PHD vs PHD+peptide): 0.2647
CSP Thr17, OC9 vs OC9 L3A (residue Thr17 amide, PHD+OC9 vs PHD+OC9 L3A): 0.0068
CSP Trp29 (residue Trp29 amide 1H-15N, Free PHD vs PHD+peptide): 0.3312
CSP Trp29, OC9 vs OC9 L3A (residue Trp29 amide, PHD+OC9 vs PHD+OC9 L3A): 0.0599
CSP Tyr7 (residue Tyr7 amide 1H-15N, Free PHD vs PHD+peptide): 0.2566
CSP Tyr7, OC9 vs OC9 L3A (residue Tyr7 amide, PHD+OC9 vs PHD+OC9 L3A): 0.0115
CSP Tyr14 (residue Tyr14 amide 1H-15N, Free PHD vs PHD+peptide): 0.3127
CSP Tyr14, OC9 vs OC9 L3A (residue Tyr14 amide, PHD+OC9 vs PHD+OC9 L3A): 0.0065
CSP Tyr48 (residue Tyr48 amide 1H-15N, Free PHD vs PHD+peptide): 0.8682
CSP Tyr48, OC9 vs OC9 L3A (residue Tyr48 amide, PHD+OC9 vs PHD+OC9 L3A): 0.0765
CSP Val4 (residue Val4 amide 1H-15N, Free PHD vs PHD+peptide): 0.0240
CSP Val4, OC9 vs OC9 L3A (residue Val4 amide, PHD+OC9 vs PHD+OC9 L3A): 0.0068
CSP Val6 (residue Val6 amide 1H-15N, Free PHD vs PHD+peptide): 0.1640
CSP Val6, OC9 vs OC9 L3A (residue Val6 amide, PHD+OC9 vs PHD+OC9 L3A): 0.0055
CSP Val16 (residue Val16 amide 1H-15N, Free PHD vs PHD+peptide): 0.3687
CSP Val16, OC9 vs OC9 L3A (residue Val16 amide, PHD+OC9 vs PHD+OC9 L3A): 0.0230
CSP Val35 (residue Val35 amide 1H-15N, Free PHD vs PHD+peptide): 0.0569
CSP Val35, OC9 vs OC9 L3A (residue Val35 amide, PHD+OC9 vs PHD+OC9 L3A): 0.0102
CSP Val37 (residue Val37 amide 1H-15N, Free PHD vs PHD+peptide): 0.0783
CSP Val37, OC9 vs OC9 L3A (residue Val37 amide, PHD+OC9 vs PHD+OC9 L3A): 0.0065
CSP Val55 (residue Val55 amide 1H-15N, Free PHD vs PHD+peptide): 0.0206
CSP Val55, OC9 vs OC9 L3A (residue Val55 amide, PHD+OC9 vs PHD+OC9 L3A): 0.0055
SMILES: CC(C)[C@@H]1NC(=O)[C@H](CO)NC(=O)[C@@H]2CCCN2C(=O)[C@H](Cc2ccc(O)cc2)NC(=O)[C@@H]2CCCN2C(=O)[C@H](Cc2c[nH]cn2)NC(=O)[C@H]([C@@H](C)O)NC(=O)[C@H](C)NC(=O)[C@H](Cc2ccc(O)cc2)NC(=O)[C@H](Cc2ccc(O)cc2)NC(=O)CSC[C@@H](C(N)=O)NC(=O)[C@H]([C@@H](C)O)NC(=O)[C@H](CCCNC(=N)N)NC(=O)[C@H](Cc2ccccc2)NC1=O [L3A] (HELM PEPTIDE1{[O=C(C[*:3])[*:2]].Y.Y.A.T.H.P.Y.P.S.V.F.R.T.C.[am]}$PEPTIDE1,PEPTIDE1,1:R3-15:R3$$$V2.0; C-terminus assumed)
